In ChEMBL document CHEMBL5728688, “Substituted pyridines as TYK2 inhibitors” (2021) one finds Kd data, which are given here for one molecule.

The assay concerns the target Non-receptor tyrosine-protein kinase TYK2 (Homo sapiens, UniProt P29597). Put plainly: TYK2 JH2 Domain Binding Assay: DiscoverX's KINOMEscan™ is a popular platform for kinase profiling, frequently used in academic and industry witnessed by publications, therefore we selected this platform as a primary cell-free screening assay to determine the relative binding potency and guide chemistry SAR.Developed by DiscoverX, KINOMEscan™ employs proprietary active-site dependent competition binding assays to determine how compounds bind to kinases. KINOMEscan™ is based on a competition binding assay that quantitatively measures the ability of a compound to compete with an immobilized, active site directed ligand. The assay is performed by combining three components: DNA-tagged kinase; immobilized ligand; and a test compound. […] The liganded beads were blocked with excess biotin and washed with blocking buffer (SeaBlock (Pierce), 1% BSA, 0.05% Tween 20, 1 mM DTT) to remove unbound ligand and to reduce non-specific binding. […] Test compounds were prepared as 111× stocks in 100% DMSO. All test compounds were shipped to DiscoverX in DMSO with concentration of 10 mM. […] Each compound was tested in duplicate. […] The compounds were then diluted directly into the assays such that the final concentration of DMSO was 0.9%. All reactions performed in polypropylene 384-well plate. Each was a final volume of 0.02 ml. […] […].

Sequence of Non-receptor tyrosine-protein kinase TYK2 (P29597 whole entry, the tested form may be a part): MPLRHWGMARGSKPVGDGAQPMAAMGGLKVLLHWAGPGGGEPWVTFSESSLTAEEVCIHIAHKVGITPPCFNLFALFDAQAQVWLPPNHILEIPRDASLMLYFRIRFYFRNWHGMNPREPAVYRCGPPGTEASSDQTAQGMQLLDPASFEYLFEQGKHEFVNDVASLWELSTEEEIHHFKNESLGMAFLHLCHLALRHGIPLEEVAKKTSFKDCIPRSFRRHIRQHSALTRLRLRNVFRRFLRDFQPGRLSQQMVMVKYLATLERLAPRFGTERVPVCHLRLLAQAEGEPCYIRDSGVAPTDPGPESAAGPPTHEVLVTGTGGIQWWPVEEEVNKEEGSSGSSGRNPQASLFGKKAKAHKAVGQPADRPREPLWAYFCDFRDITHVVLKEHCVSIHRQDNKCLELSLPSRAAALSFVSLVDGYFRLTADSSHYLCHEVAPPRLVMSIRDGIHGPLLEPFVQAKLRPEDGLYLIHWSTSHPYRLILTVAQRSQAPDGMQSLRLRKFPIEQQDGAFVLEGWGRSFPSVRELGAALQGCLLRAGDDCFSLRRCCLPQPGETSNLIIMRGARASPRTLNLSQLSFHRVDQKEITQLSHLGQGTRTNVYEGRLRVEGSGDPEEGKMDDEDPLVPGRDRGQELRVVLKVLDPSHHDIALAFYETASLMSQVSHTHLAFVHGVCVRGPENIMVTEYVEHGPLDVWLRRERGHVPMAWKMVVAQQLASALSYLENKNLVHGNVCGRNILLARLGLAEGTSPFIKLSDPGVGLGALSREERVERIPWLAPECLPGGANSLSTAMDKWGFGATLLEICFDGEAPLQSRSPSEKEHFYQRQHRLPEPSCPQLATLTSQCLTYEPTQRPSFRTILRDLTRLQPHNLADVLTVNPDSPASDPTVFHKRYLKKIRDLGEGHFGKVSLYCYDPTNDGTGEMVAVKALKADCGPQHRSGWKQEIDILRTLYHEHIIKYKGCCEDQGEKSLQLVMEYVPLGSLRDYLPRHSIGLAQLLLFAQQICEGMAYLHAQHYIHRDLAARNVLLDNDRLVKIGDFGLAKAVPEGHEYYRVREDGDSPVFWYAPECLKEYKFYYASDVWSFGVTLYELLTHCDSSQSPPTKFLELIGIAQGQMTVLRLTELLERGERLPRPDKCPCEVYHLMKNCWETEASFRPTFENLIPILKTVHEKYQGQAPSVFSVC

For the molecule `CNC(=O)c1nnc(N2CCC(C)(C)C2=O)cc1Nc1cccc(-c2ncn(C)n2)c1OC`, the Kd was under 1 nM.
